# Test results from patent publication US20210236605A1, “COMBINATIONS OF OSTEOPONTIN AND 2'-FUCOSYLLACTOSE FOR USE AS MEDICAMENTS” (HEALTH AND HAPPINESS (H&H) HONG KONG LIMITED, priority 2018, published 2021).
# Assays:
# serum IgE = assay: Determination of serum IgE levels (ELISA) in DNCB sensitized mice; format: in vivo; conditions: day 27, DNCB-sensitized BALB/c mice (DNCB saline group 1025.02±82.68), FIG. 3; combination = high dose, trial 8
# Method: (§1) Balb/c mice were purchased from the Animal Center of Southern Medical University (Guangzhou, China). The animals were maintained under a 12-h light/dark cycle in a specific pathogen-free animal facility at a controlled temperature (20-25° C.) and humidity (50±5%). All mice were fed with regular diet and autoclaved water. All animal experiments in this study were approved by the Welfare and Ethical Committee for Experimental Animal Care of Southern Medical University. To induce AD-like symptom, dinitrochlorobenzene (DNCB) solution (dissolved in a 3:1 mixture of acetone and olive oil) was applied to the dorsal skin and ears of mice (female, 6-8 weeks old). One day after complete dorsal hair removal (approximately 4 cm^2), 150 μl of 2% DNCB solution was applied on the dorsal skin, and 10 μl each were applied to the back of both ears at day 1. Four days after sensitization, 0.5% DNCB dissolved in an acetone:olive oil mixture (3:1 vol/vol) is applied to challenge the dorsal skin (150 μl) and the back of both ears (10 μl each) once every two days, (days-27). OPN and 2-FL were dissolved in 0.9% normal saline. […]
# Individual mouse serum was collected on the last day of the experiment. Serum levels of IgE were quantified using the commercial enzyme-linked immunosorbent assay (ELISA) kits (Invitrogen, San Diego, USA) according to the manufacturer's instructions. […]
# [1] = test system: DNCB-induced AD-like symptoms in BALB/c mice; assay: Evaluation of AD score / AD-like symptoms in DNCB-induced BALB/c AD model; format: in vivo; conditions: for severity of DNCB-induced AD-like symptoms: BALB/c mice, OPN 37.5 or 2.7 mg/kg(bw)/day, 2-FL 600 or 75 mg/kg(bw)/day, compared with saline-supplemented mice; for AD score (dermatitis score, AD-like symptoms): oral administration, DNCB-treated BALB/c mice, FIG. 1, combinations esp. trials 7 and 8 (high OPN)
# Source text: To investigate the potential therapeutic effect of OPN or 2-FL or an OPN/2FL combination on inflammation and emergence of atopic dermatitis (AD), BALB/c AD model was established by topical application of DNCB on each ear and the dorsal skin. Edema, excoriation, erythema, and scarring were apparent on the skin of DNCB sensitized mice after multiple challenged of DNCB. Strikingly, the severity of DNCB-induced AD-like symptoms in BALB/c mice was ameliorated upon supplementation with OPN (37.5 or 2.7 mg/kg(bw) day) and 2-FL (600 or 75 mg/kg(bw)·day) compared with saline-supplemented mice. Pruritus is an essential feature of AD. The scratching behaviour has already been established as an objective indicator to evaluate pruritus in animal model.
# Balb/c mice were purchased from the Animal Center of Southern Medical University (Guangzhou, China). The animals were maintained under a 12-h light/dark cycle in a specific pathogen-free animal facility at a controlled temperature (20-25° C.) and humidity (50±5%). All mice were fed with regular diet and autoclaved water. All animal experiments in this study were approved by the Welfare and Ethical Committee for Experimental Animal Care of Southern Medical University. To induce AD-like symptom, dinitrochlorobenzene (DNCB) solution (dissolved in a 3:1 mixture of acetone and olive oil) was applied to the dorsal skin and ears of mice (female, 6-8 weeks old). One day after complete dorsal hair removal (approximately 4 cm^2), 150 μl of 2% DNCB solution was applied on the dorsal skin, and 10 μl each were applied to the back of both ears at day 1. Four days after sensitization, 0.5% DNCB dissolved in an acetone:olive oil mixture (3:1 vol/vol) is applied to challenge the dorsal skin (150 μl) and the back of both ears (10 μl each) once every two days, (days-27). OPN and 2-FL were dissolved in 0.9% normal saline. Mice treated with DNCB are intragastrically administered with 2-FL, OPN or 2-FL plus OPN from day 0 to day 27. The mice in the vehicle and another DNCB groups are given an equal volume of physiological saline.
# The severity of dorsal skin lesions were assessed macroscopically according to the following four symptoms: edema, erythema/hemorrhage, excoriation/erosion, and scarring/dryness, and the sum of the individual scores (0, no symptoms; 1, mild; 2, moderate; 3, severe), ranging from 0 to 12, was defined as the final dermatitis scores. These visual assessments were performed every two day and by at least two independent investigators.
# FIG. 1: OPN and 2-FL alleviation of AD-like symptoms induced—as per dermatitis score evaluation—by DNCB in BALB/c mice. […]
# [2] = test system: cytokine mRNA expression in skin (TSLP, IL-4, IL-17, IFN-γ, T-bet, GATA3, ROR-γt); assay: Quantitative RT-PCR of cytokine and transcription factor mRNA in dorsal skin of DNCB-treated mice; format: in vivo, BALB/c mice; conditions: dorsal skin / skin lesions, ratio to GAPDH, vs saline-treated/control AD mice
# Method: Total RNA was isolated from the dorsal skin of the control and treated BALB/c mice. Subsequently, cytokine mRNA expression in the skin sample was measured by RT-PCR.
# Balb/c mice were purchased from the Animal Center of Southern Medical University (Guangzhou, China). The animals were maintained under a 12-h light/dark cycle in a specific pathogen-free animal facility at a controlled temperature (20-25° C.) and humidity (50±5%). All mice were fed with regular diet and autoclaved water. All animal experiments in this study were approved by the Welfare and Ethical Committee for Experimental Animal Care of Southern Medical University. […]
# Total RNA was isolated from dorsal skin using TRIzol (TransGen Biotech, Beijing, China) according to manufacturer's instruction. 500 ng RNA was quantified for the reverse transcription reaction with TranScript All-in-One First-Strand cDNA Synthesis SuperMix (TransGen Biotech, Beijing, China) in a total volume of 10 μL. Quantitative real-time PCR (RT-PCR) analysis of gene expression was performed using TransStart Green qPCR SuperMix (TransGen Biotech, Beijing, China). […]
# FIGS. 5 (a), (b) and (c): Relative mRNA expression levels of Th2-associated cytokines ((a) TSLP and (b) IL-4) and IL17a, as measured by RT-PCR and expressed as a ratio of GAPDH, extracted from BALB/c mice treated with DNCB in the presence and absence of OPN and/or 2FL. *p<0.05, **p<0.01. […]
# [3] = test system: scratching behaviour (pruritus) in DNCB-treated BALB/c mice; assay: Assessment of scratching behaviour in DNCB-treated BALB/c mice; format: in vivo; conditions: oral administration, FIG. 2, combination esp. trials 7 & 8
# Method: as §1, with “(days-27).” for “(days-27). OPN and 2-FL were dissolved in 0.9% normal saline.”
# Mice were placed into cages for 1 h for habituation. After habituation, the number of scratching episodes for 15 min was counted macroscopically. A series of scratching movements made with the paw was counted as one scratching episode. The total scratching behaviour number was calculated within 15 min. […]
Substance,serum IgE concentration (serum IgE) [µg/mL],severity of DNCB-induced AD-like symptoms [1],"AD score (dermatitis score, AD-like symptoms) [1]",IL-17 mRNA expression in skin [2],scratching behaviour (number of scratching episodes for 15 min) [3]
osteopontin [OPN],388.22 ± 61.28,ameliorated,reduced substantially,significantly lower,reduced scratching behaviour
2′-fucosyllactose [2-FL],621.27 ± 46.79,ameliorated,reduced substantially,significantly lower,reduced scratching behaviour
